# Laboratory results reported in the kinase profiling compilation of Christmann-Franck et al. (2016).
# Tests used:
# Assay in all cases: radiometric filter-binding kinase assay, Kinase HotSpot
# Settings in all cases: compound 0.5 µM; ATP 10 µM
# RET (human) = RET (human) (UniProt P07949)
# MAP2K1 (human) = MAP2K1 (human) (UniProt Q02750)
# EPHB3 (human) = EPHB3 (human) (UniProt P54753)
# CHUK (human) = CHUK (human) (UniProt O15111)
# MAP3K3 (human) = MAP3K3 (human) (UniProt Q99759)
# MAP3K8 (human) = MAP3K8 (human) (UniProt P41279)
# ACVR1B (human) = ACVR1B (human) (UniProt P36896)
# MAPK13 (human) = MAPK13 (human) (UniProt O15264)
# ALK (human) = ALK (human) (UniProt Q9UM73)
# NLK (human) = NLK (human) (UniProt Q9UBE8)
# PKN2 (human) = PKN2 (human) (UniProt Q16513)
# NEK1 (human) = NEK1 (human) (UniProt Q96PY6)
# ROS1 (human) = ROS1 (human) (UniProt P08922)
# MINK1 (human) = MINK1 (human) (UniProt Q8N4C8)
# CDK3 CCNE1 (human) = CDK3 CCNE1 (human) (UniProt Q00526+P24864)
# CSNK1G2 (human) = CSNK1G2 (human) (UniProt P78368)
# SIK2 (human) = SIK2 (human) (UniProt Q9H0K1)
# TTK (human) = TTK (human) (UniProt P33981)
# CLK2 (human) = CLK2 (human) (UniProt P49760)
# CLK1 (human) = CLK1 (human) (UniProt P49759)
# ACVR1 (human) = ACVR1 (human) (UniProt Q04771)
# ERBB4 (human) = ERBB4 (human) (UniProt Q15303)
# TGFBR2 (human) = TGFBR2 (human) (UniProt P37173)
# CLK3 (human) = CLK3 (human) (UniProt P49761)
# MAP3K11 (human) = MAP3K11 (human) (UniProt Q16584)
# GRK7 (human) = GRK7 (human) (UniProt Q8WTQ7)
# RPS6KA3 KD1 KD2 (human) = RPS6KA3 KD1 KD2 (human) (UniProt P51812)
# NTRK3 (human) = NTRK3 (human) (UniProt Q16288)
# KIT (human) = KIT (human) (UniProt P10721)
# [1] = target: TYK2 JH1 catalytic (human) (UniProt P29597)
# MARK1 (human) = MARK1 (human) (UniProt Q9P0L2)
# PDGFRB (human) = PDGFRB (human) (UniProt P09619)
# ZAP70 (human) = ZAP70 (human) (UniProt P43403)
# HIPK4 (human) = HIPK4 (human) (UniProt Q8NE63)
# FER (human) = FER (human) (UniProt P16591)
# PAK3 (human) = PAK3 (human) (UniProt O75914)
# MAP4K2 (human) = MAP4K2 (human) (UniProt Q12851)
# PRKCE (human) = PRKCE (human) (UniProt Q02156)
# [2] = target: JAK1 JH1 catalytic (human) (UniProt P23458)
# PDGFRA (human) = PDGFRA (human) (UniProt P16234)
# DYRK3 (human) = DYRK3 (human) (UniProt O43781)
# SLK (human) = SLK (human) (UniProt Q9H2G2)
# JAK1 JH1 catalytic (human), sequence (P23458 whole entry, looked up): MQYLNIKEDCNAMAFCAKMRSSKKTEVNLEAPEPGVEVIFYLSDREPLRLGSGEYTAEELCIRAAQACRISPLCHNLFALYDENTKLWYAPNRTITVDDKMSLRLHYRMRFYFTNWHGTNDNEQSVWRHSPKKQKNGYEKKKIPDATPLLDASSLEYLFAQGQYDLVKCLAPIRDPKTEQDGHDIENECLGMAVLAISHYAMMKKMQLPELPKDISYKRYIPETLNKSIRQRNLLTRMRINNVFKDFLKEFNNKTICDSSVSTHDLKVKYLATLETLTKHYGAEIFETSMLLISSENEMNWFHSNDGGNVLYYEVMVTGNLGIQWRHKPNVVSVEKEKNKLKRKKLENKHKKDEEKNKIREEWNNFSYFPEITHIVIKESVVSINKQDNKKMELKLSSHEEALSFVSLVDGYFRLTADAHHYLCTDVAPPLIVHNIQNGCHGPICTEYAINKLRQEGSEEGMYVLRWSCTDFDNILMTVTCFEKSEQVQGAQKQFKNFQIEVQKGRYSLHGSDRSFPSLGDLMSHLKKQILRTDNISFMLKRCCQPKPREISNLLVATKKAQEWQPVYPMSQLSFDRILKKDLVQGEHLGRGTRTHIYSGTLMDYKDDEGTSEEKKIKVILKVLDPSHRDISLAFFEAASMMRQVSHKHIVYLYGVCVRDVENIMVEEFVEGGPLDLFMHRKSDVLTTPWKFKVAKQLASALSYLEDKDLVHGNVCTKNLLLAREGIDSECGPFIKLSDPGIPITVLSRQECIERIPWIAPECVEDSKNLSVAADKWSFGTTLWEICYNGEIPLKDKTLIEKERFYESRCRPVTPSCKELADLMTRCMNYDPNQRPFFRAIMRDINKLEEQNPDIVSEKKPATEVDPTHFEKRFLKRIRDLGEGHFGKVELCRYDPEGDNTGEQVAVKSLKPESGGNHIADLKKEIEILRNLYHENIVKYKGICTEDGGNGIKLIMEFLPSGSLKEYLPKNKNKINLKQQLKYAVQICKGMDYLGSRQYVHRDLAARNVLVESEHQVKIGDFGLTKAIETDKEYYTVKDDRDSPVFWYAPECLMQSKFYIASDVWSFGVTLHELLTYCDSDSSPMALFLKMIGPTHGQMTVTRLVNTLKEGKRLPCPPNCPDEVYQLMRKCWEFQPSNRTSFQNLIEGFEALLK
# RET (human), sequence (P07949 whole entry, looked up): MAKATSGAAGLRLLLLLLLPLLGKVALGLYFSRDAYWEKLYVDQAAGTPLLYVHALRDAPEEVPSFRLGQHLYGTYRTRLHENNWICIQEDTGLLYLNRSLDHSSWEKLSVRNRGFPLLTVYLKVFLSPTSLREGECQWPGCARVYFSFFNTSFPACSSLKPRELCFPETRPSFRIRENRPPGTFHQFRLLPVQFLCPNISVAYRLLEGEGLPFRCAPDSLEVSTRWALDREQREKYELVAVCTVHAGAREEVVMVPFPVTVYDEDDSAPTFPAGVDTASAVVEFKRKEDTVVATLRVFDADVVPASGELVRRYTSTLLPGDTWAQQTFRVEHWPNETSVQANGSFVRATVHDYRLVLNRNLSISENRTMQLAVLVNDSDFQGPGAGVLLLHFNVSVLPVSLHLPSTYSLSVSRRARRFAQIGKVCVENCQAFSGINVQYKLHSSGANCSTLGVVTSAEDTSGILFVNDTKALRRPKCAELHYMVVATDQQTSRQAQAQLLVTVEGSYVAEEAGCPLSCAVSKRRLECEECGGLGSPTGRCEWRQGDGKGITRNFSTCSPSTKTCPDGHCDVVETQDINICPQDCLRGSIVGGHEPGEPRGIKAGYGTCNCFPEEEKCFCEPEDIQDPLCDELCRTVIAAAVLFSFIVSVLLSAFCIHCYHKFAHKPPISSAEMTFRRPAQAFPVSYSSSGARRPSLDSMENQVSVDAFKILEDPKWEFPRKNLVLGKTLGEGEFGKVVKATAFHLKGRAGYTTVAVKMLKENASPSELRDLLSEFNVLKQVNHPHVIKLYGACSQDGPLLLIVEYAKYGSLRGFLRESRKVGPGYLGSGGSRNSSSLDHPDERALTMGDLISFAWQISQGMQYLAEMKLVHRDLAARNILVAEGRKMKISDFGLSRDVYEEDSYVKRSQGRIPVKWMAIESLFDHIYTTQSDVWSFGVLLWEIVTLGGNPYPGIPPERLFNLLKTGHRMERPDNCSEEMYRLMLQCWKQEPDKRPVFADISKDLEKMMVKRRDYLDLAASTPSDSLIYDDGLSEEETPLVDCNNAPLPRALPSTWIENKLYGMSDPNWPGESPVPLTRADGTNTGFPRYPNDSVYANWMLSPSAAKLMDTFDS
# PAK3 (human), sequence (O75914 whole entry, looked up): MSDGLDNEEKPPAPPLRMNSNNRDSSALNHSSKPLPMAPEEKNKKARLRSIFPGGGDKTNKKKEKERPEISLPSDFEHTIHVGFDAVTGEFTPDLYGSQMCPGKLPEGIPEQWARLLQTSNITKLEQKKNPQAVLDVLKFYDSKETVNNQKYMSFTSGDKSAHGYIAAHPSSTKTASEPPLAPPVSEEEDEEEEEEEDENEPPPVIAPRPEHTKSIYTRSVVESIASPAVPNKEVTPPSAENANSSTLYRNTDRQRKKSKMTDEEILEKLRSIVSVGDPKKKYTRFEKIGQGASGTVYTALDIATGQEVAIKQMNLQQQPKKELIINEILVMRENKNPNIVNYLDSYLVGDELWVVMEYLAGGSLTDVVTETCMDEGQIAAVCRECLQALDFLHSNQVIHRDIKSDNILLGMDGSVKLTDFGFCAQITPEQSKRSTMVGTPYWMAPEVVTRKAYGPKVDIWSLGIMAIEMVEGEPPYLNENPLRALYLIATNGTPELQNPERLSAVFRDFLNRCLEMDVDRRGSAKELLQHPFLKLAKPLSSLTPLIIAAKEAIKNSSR
# EPHB3 (human), sequence (P54753 whole entry, looked up): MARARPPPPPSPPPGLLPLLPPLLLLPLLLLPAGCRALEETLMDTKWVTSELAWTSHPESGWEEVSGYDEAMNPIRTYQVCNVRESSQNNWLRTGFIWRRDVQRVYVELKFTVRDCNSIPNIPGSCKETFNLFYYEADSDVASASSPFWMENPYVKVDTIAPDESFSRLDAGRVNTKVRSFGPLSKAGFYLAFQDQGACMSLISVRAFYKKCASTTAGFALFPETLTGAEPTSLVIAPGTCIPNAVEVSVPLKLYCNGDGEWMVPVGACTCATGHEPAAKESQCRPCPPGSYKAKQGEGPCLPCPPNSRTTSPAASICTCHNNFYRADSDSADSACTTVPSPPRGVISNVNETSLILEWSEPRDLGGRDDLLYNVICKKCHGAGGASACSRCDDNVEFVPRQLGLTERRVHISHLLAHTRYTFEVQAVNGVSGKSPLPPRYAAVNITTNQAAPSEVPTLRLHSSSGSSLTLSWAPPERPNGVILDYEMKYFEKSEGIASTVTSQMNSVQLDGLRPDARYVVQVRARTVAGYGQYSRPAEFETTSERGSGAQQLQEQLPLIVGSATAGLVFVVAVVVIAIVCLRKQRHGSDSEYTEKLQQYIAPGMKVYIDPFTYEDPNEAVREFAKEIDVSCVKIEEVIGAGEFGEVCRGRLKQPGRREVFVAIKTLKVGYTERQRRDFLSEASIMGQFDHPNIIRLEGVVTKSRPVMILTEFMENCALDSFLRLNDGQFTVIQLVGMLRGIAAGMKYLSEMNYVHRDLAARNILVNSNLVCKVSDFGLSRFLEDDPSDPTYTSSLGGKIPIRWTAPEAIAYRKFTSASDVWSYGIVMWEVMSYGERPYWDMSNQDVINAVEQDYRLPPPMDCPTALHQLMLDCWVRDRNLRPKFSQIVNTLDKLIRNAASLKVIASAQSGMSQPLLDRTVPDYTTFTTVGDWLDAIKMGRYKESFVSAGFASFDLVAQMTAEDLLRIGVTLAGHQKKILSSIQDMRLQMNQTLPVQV
# MAP3K3 (human), sequence (Q99759 whole entry, looked up): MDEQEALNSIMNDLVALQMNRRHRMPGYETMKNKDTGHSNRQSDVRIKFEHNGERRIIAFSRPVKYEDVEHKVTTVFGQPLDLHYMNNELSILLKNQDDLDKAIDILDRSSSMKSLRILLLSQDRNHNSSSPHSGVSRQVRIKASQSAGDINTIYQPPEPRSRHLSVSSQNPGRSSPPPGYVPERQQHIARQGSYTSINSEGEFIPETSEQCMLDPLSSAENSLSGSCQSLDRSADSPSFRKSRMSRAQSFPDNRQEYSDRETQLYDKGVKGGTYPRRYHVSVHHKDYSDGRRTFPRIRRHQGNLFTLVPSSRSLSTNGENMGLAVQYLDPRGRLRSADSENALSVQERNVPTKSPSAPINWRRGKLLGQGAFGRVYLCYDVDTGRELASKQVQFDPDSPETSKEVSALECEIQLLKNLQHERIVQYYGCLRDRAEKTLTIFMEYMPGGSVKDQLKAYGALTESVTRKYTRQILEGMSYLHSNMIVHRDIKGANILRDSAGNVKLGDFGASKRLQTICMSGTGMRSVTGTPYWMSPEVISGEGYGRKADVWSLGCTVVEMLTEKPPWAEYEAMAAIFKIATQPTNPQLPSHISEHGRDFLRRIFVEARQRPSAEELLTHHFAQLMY
# ACVR1 (human), sequence (Q04771 whole entry, looked up): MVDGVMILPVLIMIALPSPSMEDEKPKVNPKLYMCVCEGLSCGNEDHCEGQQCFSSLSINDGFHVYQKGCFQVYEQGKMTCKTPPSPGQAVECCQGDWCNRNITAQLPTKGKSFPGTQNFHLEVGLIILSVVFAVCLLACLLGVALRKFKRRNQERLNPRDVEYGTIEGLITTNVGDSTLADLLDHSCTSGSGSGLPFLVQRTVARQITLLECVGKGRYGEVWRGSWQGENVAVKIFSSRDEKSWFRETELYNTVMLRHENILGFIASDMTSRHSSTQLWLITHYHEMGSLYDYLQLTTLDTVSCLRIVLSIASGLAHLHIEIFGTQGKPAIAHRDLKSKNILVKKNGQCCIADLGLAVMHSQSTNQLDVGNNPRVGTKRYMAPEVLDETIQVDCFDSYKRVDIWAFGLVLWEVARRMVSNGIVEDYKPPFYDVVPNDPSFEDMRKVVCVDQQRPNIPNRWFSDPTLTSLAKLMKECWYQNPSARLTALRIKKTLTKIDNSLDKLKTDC
compound,measurement,setting,value
CCc1nc(-c2ccc(OC)cc2)[nH]c1-c1ccncc1,residual activity,RET (human),99.2%
same,residual activity,MAP2K1 (human),97.8%
same,residual activity,EPHB3 (human),107%
same,residual activity,CHUK (human),104%
same,residual activity,MAP3K3 (human),99%
same,residual activity,MAP3K8 (human),95%
same,residual activity,ACVR1B (human),86.5%
same,residual activity,MAPK13 (human),112%
same,residual activity,ALK (human),106%
same,residual activity,NLK (human),103%
same,residual activity,PKN2 (human),95.7%
same,residual activity,NEK1 (human),98.9%
same,residual activity,ROS1 (human),91.8%
same,residual activity,MINK1 (human),103%
same,residual activity,CDK3 CCNE1 (human),97.9%
same,residual activity,CSNK1G2 (human),97.7%
same,residual activity,SIK2 (human),88.3%
same,residual activity,TTK (human),105%
same,residual activity,CLK2 (human),106%
same,residual activity,CLK1 (human),105%
same,residual activity,ACVR1 (human),95.8%
same,residual activity,ERBB4 (human),86.8%
same,residual activity,TGFBR2 (human),140%
same,residual activity,CLK3 (human),95.6%
same,residual activity,MAP3K11 (human),96.7%
same,residual activity,GRK7 (human),101%
same,residual activity,RPS6KA3 KD1 KD2 (human),98.7%
same,residual activity,NTRK3 (human),103%
same,residual activity,KIT (human),92.7%
same,residual activity,[1],106%
same,residual activity,MARK1 (human),99.2%
same,residual activity,PDGFRB (human),105%
same,residual activity,ZAP70 (human),101%
same,residual activity,HIPK4 (human),90%
same,residual activity,FER (human),96.4%
same,residual activity,PAK3 (human),103%
same,residual activity,MAP4K2 (human),106%
same,residual activity,PRKCE (human),101%
same,residual activity,[2],110%
same,residual activity,PDGFRA (human),96.3%
same,residual activity,DYRK3 (human),95.5%
same,residual activity,SLK (human),99.7%
CCOc1cc2ncnc(Nc3cccc(Br)c3)c2cc1OCC,residual activity,RET (human),39.3%
same,residual activity,MAP2K1 (human),96.1%
same,residual activity,EPHB3 (human),99.7%
same,residual activity,CHUK (human),105%
same,residual activity,MAP3K3 (human),92.9%
same,residual activity,MAP3K8 (human),106%
same,residual activity,ACVR1B (human),101%
same,residual activity,MAPK13 (human),96.7%
same,residual activity,ALK (human),85.8%
same,residual activity,NLK (human),95.9%
same,residual activity,PKN2 (human),90%
same,residual activity,NEK1 (human),99.2%
same,residual activity,ROS1 (human),102%
same,residual activity,MINK1 (human),77.8%
same,residual activity,CDK3 CCNE1 (human),95.2%
same,residual activity,CSNK1G2 (human),103%
same,residual activity,SIK2 (human),109%
same,residual activity,TTK (human),91.2%
same,residual activity,CLK2 (human),92.6%
same,residual activity,CLK1 (human),97.2%
same,residual activity,ACVR1 (human),97.1%
same,residual activity,ERBB4 (human),34.3%
same,residual activity,TGFBR2 (human),83.4%
same,residual activity,CLK3 (human),85.3%
same,residual activity,MAP3K11 (human),93%
same,residual activity,GRK7 (human),102%
same,residual activity,RPS6KA3 KD1 KD2 (human),89.9%
same,residual activity,NTRK3 (human),91.5%
same,residual activity,KIT (human),74.4%
same,residual activity,[1],107%
same,residual activity,MARK1 (human),90.3%
same,residual activity,PDGFRB (human),94.8%
same,residual activity,ZAP70 (human),105%
same,residual activity,HIPK4 (human),89.9%
same,residual activity,FER (human),90.7%
same,residual activity,PAK3 (human),97.6%
same,residual activity,MAP4K2 (human),91.5%
same,residual activity,PRKCE (human),94.5%
same,residual activity,[2],102%
same,residual activity,PDGFRA (human),84.7%
same,residual activity,DYRK3 (human),98.5%
same,residual activity,SLK (human),64.8%
O=C1NC(=O)c2cc(Nc3ccc(F)cc3)c(Nc3ccc(F)cc3)cc21,residual activity,RET (human),104%
same,residual activity,MAP2K1 (human),103%
same,residual activity,EPHB3 (human),94.7%
same,residual activity,CHUK (human),99.2%
same,residual activity,MAP3K3 (human),102%
same,residual activity,MAP3K8 (human),96.3%
same,residual activity,ACVR1B (human),94.2%
same,residual activity,MAPK13 (human),99.4%
same,residual activity,ALK (human),92.6%
same,residual activity,NLK (human),103%
same,residual activity,PKN2 (human),102%
same,residual activity,NEK1 (human),88%
same,residual activity,ROS1 (human),92%
same,residual activity,MINK1 (human),99%
same,residual activity,CDK3 CCNE1 (human),98.9%
same,residual activity,CSNK1G2 (human),97.5%
same,residual activity,SIK2 (human),103%
same,residual activity,TTK (human),95.4%
same,residual activity,CLK2 (human),88.1%
same,residual activity,CLK1 (human),102%
same,residual activity,ACVR1 (human),92.3%
same,residual activity,ERBB4 (human),99.4%
same,residual activity,TGFBR2 (human),85.2%
same,residual activity,CLK3 (human),93.7%
same,residual activity,MAP3K11 (human),98.4%
same,residual activity,GRK7 (human),106%
same,residual activity,RPS6KA3 KD1 KD2 (human),118%
same,residual activity,NTRK3 (human),95.6%
same,residual activity,KIT (human),97.2%
same,residual activity,[1],80.6%
same,residual activity,MARK1 (human),98.9%
same,residual activity,PDGFRB (human),93.9%
same,residual activity,ZAP70 (human),78.8%
same,residual activity,HIPK4 (human),82.5%
same,residual activity,FER (human),96.4%
same,residual activity,PAK3 (human),99.4%
same,residual activity,MAP4K2 (human),98.2%
same,residual activity,PRKCE (human),97.8%
same,residual activity,[2],91.5%
same,residual activity,PDGFRA (human),101%
same,residual activity,DYRK3 (human),97.1%
same,residual activity,SLK (human),65.5%
